Assay [1] is described as follows: Inhibition of Gq (unknown origin) coupled with muscarinic M1 receptor expressed in CHO cells assessed as reduction in carbachol-induced IP1 accumulation pretreated for 1 hr followed by carbachol addition measured after 35 mins by HTRF assay. The assay is classed as cell-based.
A short description of assay [2]: Displacement of [3H]PSB-15900 from Gq (unknown origin) expressed in platelet cell membranes. Set-up: species or system Homo sapiens.

The results in this text go back to ChEMBL document CHEMBL4145635, “Applying Molecular Networking for the Detection of Natural Sources and Analogues of the Selective Gq Protein Inhibitor FR900359” (J Nat Prod, 2018).

*1 amine or outer side, *2 acyl side, *3 side chain or, on linkers, in order; H or OH if unused. Where a SMILES comes first, the peptide text is derived from it. Bridges are numbered along the chain shown (N, C = ends). [ ]: non-standard residue; d: D form. The star is where a group is joined. Leu(3R-O(AcLeu(3R-OH))) = CC(=O)N[C@H](C(=O)O[C@H](C(C)C)[C@H](N)C(=O)O)[C@H](O)C(C)C; Leu(3R-OH,Nα-propionyl) = CCC(=O)N[C@H](C(=O)*)[C@H](O)C(C)C; X1 = CC(C)[C@@H](O[*:3])[C@H](N[*:1])C(=O)[*:2]; NMeT = CN[C@H](C(=O)O)[C@@H](C)O; dPhLac = O=C(O)[C@H](O)Cc1ccccc1; NMeA = CN[C@@H](C)C(=O)O; NMeDha = C=C(NC)C(=O)O

As to `C=C1C(=O)N[C@@H](C)C(=O)N(C)[C@@H](C)C(=O)N[C@@H]([C@H](OC(=O)[C@@H](NC(=O)CC)[C@H](O)C(C)C)C(C)C)C(=O)N(C)[C@@H]([C@@H](C)OC)C(=O)O[C@H](C(C)C)[C@H](NC(C)=O)C(=O)O[C@H](Cc2ccccc2)C(=O)N1C` (Ac-[X1][dPhLac][NMeDha]A[NMeA][X1](Leu(3R-OH,Nα-propionyl))[NMeT](Me); ester 1-C), in assay [1], the IC50 was 2.29 to 16.2 nM. This compound displayed a pIC50 in assay [2] of 7.79 to 8.64.
In the same order, the values of `C=C1C(=O)N[C@@H](C)C(=O)N(C)[C@@H](C)C(=O)N[C@@H]([C@H](OC(=O)[C@@H](NC(C)=O)[C@H](O)C(C)C)C(C)C)C(=O)N(C)[C@@H]([C@@H](C)OC)C(=O)O[C@H](C(C)C)[C@H](NC(C)=O)C(=O)O[C@H](Cc2ccccc2)C(=O)N1C` (Ac-[X1][dPhLac][NMeDha]A[NMeA][Leu(3R-O(AcLeu(3R-OH)))][NMeT](Me); ester 1-C) are 2.29 to 16.2 nM and 7.79 to 8.64.
The corresponding values for `C=C1C(=O)N[C@@H](C)C(=O)N(C)[C@@H](C)C(=O)N[C@@H]([C@H](OC(=O)[C@@H](NC(=O)CC)[C@H](O)C(C)C)C(C)C)C(=O)N(C)[C@@H]([C@@H](C)OC)C(=O)O[C@H](C(C)C)[C@H](NC(=O)CCO)C(=O)O[C@H](Cc2ccccc2)C(=O)N1C` are 2.29 to 16.2 nM and 7.79 to 8.64.

In general, IC50 refers to the concentration needed to halve the response being measured. As usually defined, the pIC50 is −log10 of the IC50, conventionally taken in molar units. Low readings indicate a high IC50, high ones a low IC50.
